From PubChem BioAssay AID330 (DTP/NCI, 2004)
Several values for one entry are separate records, joined by “and”; a condition that tells them apart may be missing. Equal entries are not always repeated. Toxic doses and inconclusive results are not listed. Rule for the calls: active = survival T/C of 150% or more; inactive = T/C below 125% in these data. Square brackets hold non-standard residues; d marks the D form. Peptide text beside a SMILES is read from it. ξ: configuration not given here. ξR = N=C(N)NCCCC(N)C(=O)O

System: P388 leukemia ip, CD2F1 mice, survival T/C
Assay: NCI In Vivo Anticancer Drug Screen. Data for tumor model P388 Leukemia (intraperitoneal) in CD2F1 (CDF1) mice
Details: endpoint: median survival time, higher = longer survival
Outline: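 Mice carrying the transplanted tumor received test compound or vehicle. Survival was recorded in each group, and the value is the treated-group measurement divided by that of the vehicle-treated control group.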

[1] = dose: 50.0 mg/kg/injection, schedule: Q01DX005 (ip), vehicle: Klucel (hydroxypropylcellulose) (HPC)
[2] = dose: 50.0 mg/kg/injection, schedule: Q01DX005 (ip), vehicle: saline with Tween-80
[3] = dose: 100.0 mg/kg/injection, schedule: Q01DX005 (ip), vehicle: saline with Tween-80
[4] = dose: 200.0 mg/kg/injection, schedule: Q01DX005 (ip), vehicle: saline with Tween-80
[5] = dose: 50.0 mg/kg/injection, schedule: Q01DX009 (ip), vehicle: saline with Tween-80
[6] = dose: 100.0 mg/kg/injection, schedule: Q01DX009 (ip), vehicle: saline with Tween-80
[7] = dose: 200.0 mg/kg/injection, schedule: Q01DX009 (ip), vehicle: saline with Tween-80
[8] = dose: 60.0 mg/kg/injection, schedule: Q01DX005 (ip), vehicle: saline with Tween-80
[9] = dose: 120.0 mg/kg/injection, schedule: Q01DX005 (ip), vehicle: saline with Tween-80
[10] = dose: 12.5 mg/kg/injection, schedule: Q01DX009 (ip), vehicle: saline with Tween-80

Measured: T/C

CCC(C)C(N)C(=O)N1CCCC1C(=O)NC(C(=O)O)C(C)CC (configuration not stated)
inactive: dose: 8.25 mg/kg/injection, schedule: Q01DX005 (ip), vehicle: saline 99 % of control | dose: 16.5 mg/kg/injection, schedule: Q01DX005 (ip), vehicle: saline 102 % of control | dose: 33.0 mg/kg/injection, schedule: Q01DX005 (ip), vehicle: saline 94 % of control | dose: 66.0 mg/kg/injection, schedule: Q01DX005 (ip), vehicle: saline 102 % of control

[O-][n+]1c2ccccc2cc2c1c1ccccc1n2O
inactive: dose: 12.5 mg/kg/injection, schedule: Q01DX005 (ip), vehicle: Klucel (hydroxypropylcellulose) (HPC) 113 % of control | dose: 25.0 mg/kg/injection, schedule: Q01DX005 (ip), vehicle: Klucel (hydroxypropylcellulose) (HPC) 107 % of control | [1] 106 % of control and 93 % of control

C/C(=N\N=C(N)N)c1ccc2c(c1)Cc1cc(/C(C)=N/N=C(N)N)ccc1-2
inactive: dose: 3.12 mg/kg/injection, schedule: Q04DX002 (ip), vehicle: saline with Tween-80 100 % of control and 107 % of control | dose: 6.25 mg/kg/injection, schedule: Q04DX002 (ip), vehicle: saline with Tween-80 107 % of control and 108 % of control | dose: 12.5 mg/kg/injection, schedule: Q04DX002 (ip), vehicle: saline with Tween-80 115 % of control (2×) and 122 % of control | dose: 25.0 mg/kg/injection, schedule: Q04DX002 (ip), vehicle: saline with Tween-80 120 % of control and 121 % of control and 123 % of control | dose: 50.0 mg/kg/injection, schedule: Q04DX002 (ip), vehicle: saline with Tween-80 115 % of control and 121 % of control and 124 % of control | dose: 100.0 mg/kg/injection, schedule: Q04DX002 (ip), vehicle: saline with Tween-80 112 % of control and 122 % of control | dose: 200.0 mg/kg/injection, schedule: Q04DX002 (ip), vehicle: saline with Tween-80 122 % of control

COc1cc2c(cc1OC)C(Cc1cc(Br)sc1Br)N(C(C)=O)CC2 (configuration not stated)
inactive: dose: 100.0 mg/kg/injection, schedule: Q01DX001 (ip), vehicle: Klucel (hydroxypropylcellulose) (HPC) 101 % of control | dose: 200.0 mg/kg/injection, schedule: Q01DX001 (ip), vehicle: Klucel (hydroxypropylcellulose) (HPC) 101 % of control | dose: 400.0 mg/kg/injection, schedule: Q01DX001 (ip), vehicle: Klucel (hydroxypropylcellulose) (HPC) 113 % of control

NC(=O)N/N=C1/CCC(OCc2ccccc2)CC1CC(=O)O (configuration not stated)
inactive: [2] 102 % of control | [3] 105 % of control | [4] 96 % of control

C/C=C1\CN2CCC34c5ccc(OC)cc5N(C)C3C2CC1C4C(=O)OC (configuration not stated)
inactive: dose: 17.25 mg/kg/injection, schedule: Q01DX005 (ip), vehicle: acid diluted with saline 96 % of control | dose: 34.5 mg/kg/injection, schedule: Q01DX005 (ip), vehicle: acid diluted with saline 94 % of control

Clc1ccc2c(NCCN3CCCCCC3)nc(C(Cl)(Cl)Cl)nc2c1
inactive: [5] 100 % of control | [6] 104 % of control | [7] 100 % of control

CSC(=CC(=O)c1ccco1)SC
inactive: [8] 98 % of control | [9] 96 % of control

Cc1cc(N(CCCl)CCCl)ccc1CN1CCCN(Cc2ccc(N(CCCl)CCCl)cc2C)C1c1ccccc1O
inactive: [10] 123 % of control

COC1=CC(=O)C(CO)=CC1=O
inactive: dose: 3.12 mg/kg/injection, schedule: Q01DX009 (ip), vehicle: saline 104 % of control | dose: 6.25 mg/kg/injection, schedule: Q01DX009 (ip), vehicle: saline 103 % of control and 104 % of control | dose: 12.5 mg/kg/injection, schedule: Q01DX009 (ip), vehicle: saline 104 % of control and 91 % of control

CN(C)c1nc(NO)nc(N(C)C)n1
inactive: [5] 103 % of control | [6] 107 % of control | [7] 112 % of control

COc1ccc(CC(O)c2cc(OC)c(OC)c(OC)c2)cc1O (configuration not stated)
inactive: dose: 2.5 mg/kg/injection, schedule: Q01DX009 (ip), vehicle: saline + alcohol 108 % of control | dose: 5.0 mg/kg/injection, schedule: Q01DX009 (ip), vehicle: saline + alcohol 118 % of control | dose: 10.0 mg/kg/injection, schedule: Q01DX009 (ip), vehicle: saline + alcohol 114 % of control | dose: 20.0 mg/kg/injection, schedule: Q01DX009 (ip), vehicle: saline + alcohol 101 % of control | dose: 22.5 mg/kg/injection, schedule: Q01DX009 (ip), vehicle: saline + Tween-80 + alcohol 108 % of control | dose: 45.0 mg/kg/injection, schedule: Q01DX009 (ip), vehicle: saline + Tween-80 + alcohol 114 % of control | dose: 90.0 mg/kg/injection, schedule: Q01DX009 (ip), vehicle: saline + Tween-80 + alcohol 107 % of control | dose: 180.0 mg/kg/injection, schedule: Q01DX009 (ip), vehicle: saline + Tween-80 + alcohol 123 % of control

CCn1c2ccccc2c2cc(/C=N/Nc3cc(C)nc4cc5c(cc34)OCO5)ccc21
inactive: [1] 100 % of control | dose: 100.0 mg/kg/injection, schedule: Q01DX005 (ip), vehicle: Klucel (hydroxypropylcellulose) (HPC) 89 % of control

COCCCNC(=S)N/N=C/c1cc(Cl)cc(Cl)c1O
inactive: dose: 6.25 mg/kg/injection, schedule: Q01DX009 (ip), vehicle: saline with Tween-80 92 % of control | [10] 87 % of control | [7] 93 % of control

NC(=O)c1sc2ncccc2c1N
inactive: [8] 96 % of control | [9] 92 % of control | dose: 240.0 mg/kg/injection, schedule: Q01DX005 (ip), vehicle: saline with Tween-80 96 % of control

CCC(c1ccc(O)cc1)c1cc2c(cc1OCC(=O)O)OCO2 (configuration not stated)
inactive: [2] 102 % of control | [3] 93 % of control | [4] 99 % of control

COCCn1nc(-c2ccc(Cl)cc2)c(-c2ccc(Cl)cc2)c(C(C)=O)c1=O
inactive: [2] 100 % of control | [3] 100 % of control | [4] 93 % of control

c1ccc([P+](Cc2ccc(C[P+](c3ccccc3)(c3ccccc3)c3ccccc3)cc2)(c2ccccc2)c2ccccc2)cc1
inactive: dose: 0.07 mg/kg/injection, schedule: Q01DX009 (ip), vehicle: saline sonified 90 % of control | dose: 0.15 mg/kg/injection, schedule: Q01DX009 (ip), vehicle: saline sonified 95 % of control | dose: 0.3 mg/kg/injection, schedule: Q01DX009 (ip), vehicle: saline sonified 90 % of control | dose: 0.6 mg/kg/injection, schedule: Q01DX009 (ip), vehicle: saline sonified 100 % of control

Cc1cc(O)c(C=O)c2c1C(=O)Oc1c(COC(=O)/C=C/C(=O)O)c(O)c(C(=O)O)c(C)c1O2
inactive: dose: 0.25 mg/kg/injection, schedule: Q01DX009 (ip), vehicle: saline with Tween-80 104 % of control | dose: 0.5 mg/kg/injection, schedule: Q01DX009 (ip), vehicle: saline with Tween-80 96 % of control | dose: 1.0 mg/kg/injection, schedule: Q01DX009 (ip), vehicle: saline with Tween-80 101 % of control | dose: 50.0 mg/kg/injection, schedule: Q01DX009 (ip), vehicle: saline 90 % of control | dose: 100.0 mg/kg/injection, schedule: Q01DX009 (ip), vehicle: saline 90 % of control

O=C1C2OC2C(=O)C2C3C=CC(C3)C12 (configuration not stated)
inactive: dose: 75.0 mg/kg/injection, schedule: Q04DX002 (ip), vehicle: saline with Tween-80 99 % of control | dose: 150.0 mg/kg/injection, schedule: Q04DX002 (ip), vehicle: saline with Tween-80 96 % of control | dose: 300.0 mg/kg/injection, schedule: Q04DX002 (ip), vehicle: saline with Tween-80 95 % of control

N#C/C(=C(/N)N1CCOCC1)N1CCOCC1
inactive: dose: 60.0 mg/kg/injection, schedule: Q01DX005 (ip), vehicle: Klucel (hydroxypropylcellulose) (HPC) 100 % of control | dose: 120.0 mg/kg/injection, schedule: Q01DX005 (ip), vehicle: Klucel (hydroxypropylcellulose) (HPC) 95 % of control | dose: 240.0 mg/kg/injection, schedule: Q01DX005 (ip), vehicle: Klucel (hydroxypropylcellulose) (HPC) 98 % of control

NC(N)=NCCCC(N)C(=O)NCC(=O)NCC(=O)O (stereo not drawn) (H-[ξR]-Gly-Gly-OH)
inactive: dose: 50.0 mg/kg/injection, schedule: Q01DX005 (ip), vehicle: saline 98 % of control | dose: 100.0 mg/kg/injection, schedule: Q01DX005 (ip), vehicle: saline 96 % of control | dose: 200.0 mg/kg/injection, schedule: Q01DX005 (ip), vehicle: saline 98 % of control

COc1ccc(CSC(=S)Nc2ccc(F)c(F)c2)cc1
inactive: dose: 50.0 mg/kg/injection, schedule: Q01DX009 (ip), vehicle: suspension in saline 108 % of control | dose: 100.0 mg/kg/injection, schedule: Q01DX009 (ip), vehicle: suspension in saline 106 % of control | dose: 200.0 mg/kg/injection, schedule: Q01DX009 (ip), vehicle: suspension in saline 99 % of control
